# In ChEMBL document CHEMBL1201862, “PubChem BioAssay data set” (2004):
#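 1) Cells in 96-well plates. 2) Compound, 48 h, 5 concentrations. 3) Linear interpolation between surrounding doses. 4) Unreached endpoint = highest concentration. GI50 = concentration required for 50% inhibition of growth.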 The source made the active and inactive calls. No stated cut-off is given here; in the data, active = GI50 up to about 1.1 µM and inactive = higher.
# Tests used:
# Experiment in all cases: DTP human tumour cell line panel, 48 h
# [1] = test system: A498
# [2] = test system: EKVX
# [3] = test system: HCT-116
# [4] = test system: HOP-62
# [5] = test system: K562
# [6] = test system: Malme-3M
# [7] = test system: OVCAR-3
# [8] = test system: OVCAR-8
# [9] = test system: RPMI-8226
# [10] = test system: SK-MEL-28
# [11] = test system: SK-MEL-2
# [12] = test system: U-251
# [13] = test system: UACC-257
# [14] = test system: UO-31
# [15] = test system: ACHN
# [16] = test system: RXF 393
SMILES,GI50 [1],GI50 [2],GI50 [3],GI50 [4],GI50 [5],GI50 [6],GI50 [7],GI50 [8],GI50 [9],GI50 [10],GI50 [11],GI50 [12],GI50 [13],GI50 [14],GI50 [15],GI50 [16]
CCCCCCCCCCCCCCC(O)C1CCC(C(O)CCC(O)CCCCCC(O)CC2=CC(C)OC2=O)O1 (stereo unspecified),4.45 µM (inactive),1.93 µM (inactive),1.36 µM (inactive),1.55 µM (inactive),0.0123 µM (active),1.58 µM (inactive),1.13 µM (inactive),2.07 µM (inactive),0.187 µM (active),1.93 µM (inactive),2.54 µM (inactive),2.74 µM (inactive),0.18 µM (active),0.0604 µM (active),,
C[C@]12CCC(=O)C=C1CC[C@@H]1[C@@H]2[C@@H](O)C[C@@]2(C)[C@H]1CC[C@]2(O)C(=O)COC(=O)COCC(=O)O,> 100 µM (inactive),> 100 µM (inactive),> 100 µM (inactive),> 100 µM (inactive),> 100 µM (inactive),> 100 µM (inactive),> 100 µM (inactive),> 100 µM (inactive),> 100 µM (inactive),> 100 µM (inactive),> 100 µM (inactive),> 100 µM (inactive),> 100 µM (inactive),> 100 µM (inactive),> 100 µM (inactive),
CCOC(=O)CNc1nnnn1C1OC(CO)C(O)C1O (stereo unspecified),> 100 µM (inactive),> 100 µM (inactive),> 100 µM (inactive),> 100 µM (inactive),> 100 µM (inactive),> 100 µM (inactive),> 100 µM (inactive),> 100 µM (inactive),> 100 µM (inactive),,> 100 µM (inactive),> 100 µM (inactive),> 100 µM (inactive),> 100 µM (inactive),> 100 µM (inactive),> 100 µM (inactive)
COc1ccc(-c2cc(-c3ccco3)c(C#N)c(=O)[nH]2)cc1,28.2 µM (inactive),> 100 µM (inactive),40.3 µM (inactive),15.7 µM (inactive),> 100 µM (inactive),29.8 µM (inactive),22.7 µM (inactive),36.8 µM (inactive),> 100 µM (inactive),> 100 µM (inactive),,15.5 µM (inactive),77.4 µM (inactive),> 100 µM (inactive),87.5 µM (inactive),45.1 µM (inactive)
COc1cc(-c2cc(O)c3ccccc3n2)cc(OC)c1OC,,> 75 µM (inactive),> 75 µM (inactive),> 75 µM (inactive),> 75 µM (inactive),> 75 µM (inactive),> 75 µM (inactive),> 75 µM (inactive),> 75 µM (inactive),> 75 µM (inactive),,> 75 µM (inactive),> 75 µM (inactive),51.3 µM (inactive),> 75 µM (inactive),> 75 µM (inactive)
OCC1=CC(NC2CC(CO)C(O)C(O)C2O)C(O)C(O)C1O (stereo unspecified),,> 100 µM (inactive),> 100 µM (inactive),> 100 µM (inactive),> 100 µM (inactive),> 100 µM (inactive),> 100 µM (inactive),> 100 µM (inactive),> 100 µM (inactive),> 100 µM (inactive),,> 100 µM (inactive),> 100 µM (inactive),> 100 µM (inactive),> 100 µM (inactive),> 100 µM (inactive)
O=C(O/N=C1\CCCC\C1=C/c1ccccc1)c1ccc([N+](=O)[O-])cc1,,> 100 µM (inactive),> 100 µM (inactive),> 100 µM (inactive),74.1 µM (inactive),> 100 µM (inactive),42.1 µM (inactive),> 100 µM (inactive),> 100 µM (inactive),> 100 µM (inactive),> 100 µM (inactive),86.3 µM (inactive),,98.4 µM (inactive),64.4 µM (inactive),> 100 µM (inactive)
CC1=CC(C)(C)N=C2SC(c3ccc(Cl)cc3)=NN12,25.8 µM (inactive),3.85 µM (inactive),,54.3 µM (inactive),21.4 µM (inactive),24.9 µM (inactive),18.1 µM (inactive),,12.1 µM (inactive),36.4 µM (inactive),43.6 µM (inactive),23 µM (inactive),29.4 µM (inactive),19.8 µM (inactive),27.9 µM (inactive),
Sc1nnc(COc2ccc(Cl)cc2)o1,> 100 µM (inactive),> 100 µM (inactive),> 100 µM (inactive),> 100 µM (inactive),> 100 µM (inactive),> 100 µM (inactive),> 100 µM (inactive),> 100 µM (inactive),> 100 µM (inactive),> 100 µM (inactive),,> 100 µM (inactive),> 100 µM (inactive),> 100 µM (inactive),> 100 µM (inactive),
Cn1c(=O)nc2n(-c3ccc(O)cc3)c3ccccc3nc-2c1=O,> 100 µM (inactive),> 100 µM (inactive),> 100 µM (inactive),55.8 µM (inactive),> 100 µM (inactive),18.9 µM (inactive),17.9 µM (inactive),44.5 µM (inactive),63.7 µM (inactive),> 100 µM (inactive),82.2 µM (inactive),14 µM (inactive),> 100 µM (inactive),> 100 µM (inactive),2.78 µM (inactive),
Cc1c2ccncc2c(C)c2c1[nH]c1ccc(O)c(OCC(F)(F)F)c12,15.2 µM (inactive),10.3 µM (inactive),2.39 µM (inactive),10.8 µM (inactive),3.16 µM (inactive),11.9 µM (inactive),7.8 µM (inactive),3.03 µM (inactive),2.1 µM (inactive),10.8 µM (inactive),12 µM (inactive),2.7 µM (inactive),10.6 µM (inactive),9.66 µM (inactive),,
O=C(c1ccc2c3c(ccc(C(=O)C(F)(F)F)c13)CC2)C(F)(F)F,47.9 µM (inactive),81.7 µM (inactive),69.2 µM (inactive),72.1 µM (inactive),,52.4 µM (inactive),69.8 µM (inactive),47.5 µM (inactive),,62.2 µM (inactive),97.5 µM (inactive),63.2 µM (inactive),42.3 µM (inactive),43.2 µM (inactive),58.9 µM (inactive),55.6 µM (inactive)
CC(C)(C)N/N=C(\Cc1occc(=O)c1O)C(=O)Nc1ccc([N+](=O)[O-])cc1[N+](=O)[O-],> 100 µM (inactive),66.5 µM (inactive),> 100 µM (inactive),> 100 µM (inactive),> 100 µM (inactive),> 100 µM (inactive),,> 100 µM (inactive),> 100 µM (inactive),> 100 µM (inactive),> 100 µM (inactive),> 100 µM (inactive),> 100 µM (inactive),> 100 µM (inactive),> 100 µM (inactive),> 100 µM (inactive)
